Source: patent US10993923B2, “Method for ameliorating fibrosis using 1-[4-chloro-3-(trifluoromethyl)phenyl]-3-[3-(4-cyanophenoxy)phenyl]urea” (priority 2016, dated 2021)

Assays:
[1] = test system: LX2 cells; assay: Cell viability (MTS), LX2 cells; assay type: cell-based, human; settings: 24 hours; effect more significant than sorafenib; FIG. 14A
Method: (§1) Rat immortal hepatic stellate cell line HSC-T6 and LX2 human hepatic stellate cell line were provided by Professor Scott Friedman of Mount Sinai Hospital in New York, USA. The primary mouse HSCs were obtained via the way: after intubating the hepatic portal vein of the mouse, the cells were perfused with Leffert's and ethylene glycol bis-aminoethyl ether tetraacetic acid (EGTA) buffer in situ, and then collagenase was injected to digest the liver tissue, and then the primary mouse HSCs were isolated by Histodnz gradient. […]
(§2) HSC-T6 cells, LX2 cells or primary mouse HSCs cells were seeded in 96-well plates (5,000 cells/well) for 24 hours, and the cells were treated with various concentrations of 1-[4-chloro-3-(trifluoromethyl)phenyl]-3-[3-(4-cyanophenoxy)phenyl]urea or Sorafenib for 24 or 48 hours. The effect of each reagent on the cell viability and the cell were evaluated by CellTiter 96 AQueous one solution of 3-(4,5-dimethylthiazol-2-yl)-5-(3-carboxymethoxyphenyl)-2-(4-sulfophenyl)-2H-tetra zolium, an inner, MTS (Promega, USA). […] The proportion of apoptotic cells was mixed the early (Annexin V+/PI−) and the late (Annexin V+/PI+) apoptotic cells measured by BD FACS Verse flow cytometry (BD, USA).

[2] = test system: HSC-T6 cells; assay: Cell viability (MTS), HSC-T6 cells; assay type: cell-based, rat; settings: 24 hours; effect more significant than sorafenib; FIG. 14A
Method: as §1, §2

[3] = test system: BDL-induced cholestasis fibrosis in mice; assay: Bile duct ligation (BDL) fibrosis mice treatment model; assay type: in vivo, Balb/C mice; settings: 10 mg/kg from day 8 until sacrifice on day 14 following BDL; FIG. 13C, 13D
Text: In the bile duct ligation (BDL) mouse model, the common bile duct of Balb/C mice was double-ligated and excised. Mice were fed daily with vehicle or 1-[4-chloro-3-(trifluoromethyl)phenyl]-3-[3-(4-cyanophenoxy)phenyl]urea on day 1 or day 8 until they were sacrificed on day 14.
The mice liver samples were stored in 10% formaldehyde, dehydrated with gradient alcohol, embedded in paraffin blocks, sectioned to a thickness of 3 μm, placed on glass slides, and stained with Picrosirius Red Stain kit (ScyTek, USA), following the manufacturer's instructions. The severity of liver fibrosis was graded according to the Ishak fibrosis score. Quantitative collagen-positive area (qCPA) was determined by densitometry via ImageJ software. Hepatic hydroxyproline concentrations were measured by the hydroxyproline assay kit (Biovision, USA), following the manufacturer's instructions Immunohistochemistry was performed by the Leica BOND-MAX automatic chromatograph (Leica Biosystems, Germany), following the manufacturer's instructions.

[4] = test system: hepatic stellate cells (HSC); assay: Western blot in hepatic stellate cells (cell line not given); assay type: cell-based
Method: Rat immortal hepatic stellate cell line HSC-T6 and LX2 human hepatic stellate cell line were provided by Professor Scott Friedman of Mount Sinai Hospital in New York, USA. The primary mouse HSCs were obtained via the way: after intubating the hepatic portal vein of the mouse, the cells were perfused with Leffert's and ethylene glycol bis-aminoethyl ether tetraacetic acid (EGTA) buffer in situ, and then collagenase was injected to digest the liver tissue, and then the primary mouse HSCs were isolated by Histodnz gradient. HSC-T6 cells were cultured in Waymouth medium; LX2 cells and primary mouse HSCs were cultured in Dulbecco's Modified Eagle Medium (DMEM) containing 10% fetal bovine serum (FBS), 100 μg/mL penicillin, 100 μg/mL streptomycin, and 2 mM L-glutamine HSC-T6 cells, LX2 cells and primary mouse HSCs were cultured in a humidified incubator containing 5% carbon dioxide at 37° C. After adding the FBS, the resting HSC is started. For in vitro studies, various concentrations of 1-[4-chloro-3-(trifluoromethyl)phenyl]-3-[3-(4-cyanophenoxy)phenyl]urea and sorafenib were dissolved in dimethyl sulfoxide and subsequently added to cells, which were in 5% FBS, for a predetermined period of time.
Whole-cell extracts were obtained via RIPA buffer (Millipore, USA) and protein concentrations were quantified via a BCA protein assay kit (Thermo Fisher Scientific, USA). 20 or 25 μg of protein was added to various percentages of SDS-sodium dodecyl sulfate-acrylamide gel and blotted onto a polyvinylidene fluoride (PVDF) membrane. The membrane was then reacted with a primary antibody; after extensive washing, the membrane was reacted with a […] containing a second antibody. Proteins were detected by Immobilon Western Chemiluminescent HRP substrate (Millipore, USA) or ECL detection system (UVP Corporation, USA). […]

[5] = molecular target: T1, SHP-1 (Rattus norvegicus, UniProt P81718); assay: SHP-1 phosphatase activity, HSC-T6 cells; assay type: cell-based; settings: sorafenib 5 μM, compound 2.5 or 5 μM, FIG. 16C
T1 construct: endogenous in cells; host or cells: HSC-T6 cells
T1 sequence (P81718 whole entry): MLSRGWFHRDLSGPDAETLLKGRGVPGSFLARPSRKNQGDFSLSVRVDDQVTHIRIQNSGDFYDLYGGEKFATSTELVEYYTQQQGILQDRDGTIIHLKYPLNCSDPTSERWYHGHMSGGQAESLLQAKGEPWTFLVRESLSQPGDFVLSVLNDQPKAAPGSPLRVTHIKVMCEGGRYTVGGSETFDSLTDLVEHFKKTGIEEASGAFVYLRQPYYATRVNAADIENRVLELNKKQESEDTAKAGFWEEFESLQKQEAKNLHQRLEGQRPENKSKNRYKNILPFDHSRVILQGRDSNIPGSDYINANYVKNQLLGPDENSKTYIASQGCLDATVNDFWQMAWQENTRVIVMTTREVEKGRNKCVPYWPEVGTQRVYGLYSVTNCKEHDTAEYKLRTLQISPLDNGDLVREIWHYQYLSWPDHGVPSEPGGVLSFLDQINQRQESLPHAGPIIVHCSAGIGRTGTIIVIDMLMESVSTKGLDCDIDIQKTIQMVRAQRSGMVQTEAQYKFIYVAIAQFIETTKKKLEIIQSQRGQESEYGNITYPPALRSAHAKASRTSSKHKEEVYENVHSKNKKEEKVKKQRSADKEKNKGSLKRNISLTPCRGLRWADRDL

`N#Cc1ccc(Oc2cccc(NC(=O)Nc3ccc(Cl)c(C(F)(F)F)c3)c2)cc1` [1-[4-chloro-3-(trifluoromethyl)phenyl]-3-[3-(4-cyanophenoxy)phenyl]urea] was tested, and the “viability of LX2 cells” value [1] was “dose-dependent effects to reduce the viability”, the “viability of HSC-T6 cells” value [2] was “dose-dependent effects to reduce the viability” and the “quantitative collagen-positive area (qCPA)” value [3] was “significantly reduced”. For the same compound, the “IL-6-induced p-STAT3 upregulation” value ([4]; 10 μM for 4 hours, then IL-6 100 ng/mL 30 minutes, FIG. 15B) was “suppressed”, the “cleavage of poly(ADP-ribose) polymerase (PARP) fragments” value ([4]; Western blotting, FIG. 14C) was “dose-dependently increased” and the “p-Akt and p-STAT3 after administering AG1295, a specific PDGFR inhibitor” value ([4]; independent of the PDGFR signaling, FIG. 15D) was “still downregulated”. The SHP-1 activity [5] was “significantly increased the SHP-1 activity at a lower concentration”.
